Source: PubChem BioAssay (NCI)
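Assay format: 96-well plates, 48-hour exposure. At the GI50, growth is halved. At the TGI there is no net growth.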

Experiments:
Experiment in all cases: DTP human tumour cell line panel, 48 h
HT29 colon = test system: HT29 colon
HCT-116 colon = test system: HCT-116 colon
786-0 renal = test system: 786-0 renal
SR leukemia = test system: SR leukemia
LOX IMVI melanoma = test system: LOX IMVI melanoma
NCI-H226 lung = test system: NCI-H226 lung
NCI/ADR-RES ovarian = test system: NCI/ADR-RES ovarian
DU-145 prostate = test system: DU-145 prostate
OVCAR-4 ovarian = test system: OVCAR-4 ovarian
UACC-62 melanoma = test system: UACC-62 melanoma
OVCAR-8 ovarian = test system: OVCAR-8 ovarian
SF-539 CNS = test system: SF-539 CNS
HCC-2998 colon = test system: HCC-2998 colon
TK-10 renal = test system: TK-10 renal
SF-268 CNS = test system: SF-268 CNS
A498 renal = test system: A498 renal
SK-MEL-2 melanoma = test system: SK-MEL-2 melanoma
MDA-MB-435 = test system: MDA-MB-435
UO-31 renal = test system: UO-31 renal
SK-MEL-5 melanoma = test system: SK-MEL-5 melanoma
OVCAR-5 ovarian = test system: OVCAR-5 ovarian
M14 melanoma = test system: M14 melanoma
SNB-75 CNS = test system: SNB-75 CNS
SF-295 CNS = test system: SF-295 CNS
RXF 393 renal = test system: RXF 393 renal
ACHN renal = test system: ACHN renal
SK-MEL-28 melanoma = test system: SK-MEL-28 melanoma
HL-60(TB) leukemia = test system: HL-60(TB) leukemia
MDA-MB-231 breast = test system: MDA-MB-231 breast
PC-3 prostate = test system: PC-3 prostate
NCI-H522 lung = test system: NCI-H522 lung
HCT-15 colon = test system: HCT-15 colon
COLO 205 colon = test system: COLO 205 colon
SW-620 colon = test system: SW-620 colon
UACC-257 melanoma = test system: UACC-257 melanoma
U251 CNS = test system: U251 CNS
NCI-H23 lung = test system: NCI-H23 lung
K-562 leukemia = test system: K-562 leukemia
EKVX NSCLC = test system: EKVX NSCLC
MCF7 breast = test system: MCF7 breast
SK-OV-3 ovarian = test system: SK-OV-3 ovarian
HOP-92 NSCLC = test system: HOP-92 NSCLC
SN12C renal = test system: SN12C renal
T-47D breast = test system: T-47D breast
HOP-62 NSCLC = test system: HOP-62 NSCLC
HS 578T breast = test system: HS 578T breast
A549 NSCLC = test system: A549 NSCLC
NCI-H460 lung = test system: NCI-H460 lung
OVCAR-3 ovarian = test system: OVCAR-3 ovarian
KM12 colon = test system: KM12 colon
IGROV1 ovarian = test system: IGROV1 ovarian
MOLT-4 leukemia = test system: MOLT-4 leukemia
MALME-3M melanoma = test system: MALME-3M melanoma
RPMI-8226 leukemia = test system: RPMI-8226 leukemia
SNB-19 CNS = test system: SNB-19 CNS
CAKI-1 renal = test system: CAKI-1 renal
CCRF-CEM leukemia = test system: CCRF-CEM leukemia
BT-549 breast = test system: BT-549 breast

## C#CCN(C)CCCOc1ccc(NCc2ccc(/C=C/C(=O)NO)cc2)cc1Cl
HT29 colon
  GI50: 345 nM
  TGI: 4770 nM
HCT-116 colon
  GI50: 274 nM
  TGI: 1700 nM
786-0 renal
  GI50: 1130 nM
  TGI: 2750 nM
SR leukemia
  GI50: 360 nM
  TGI: > 100000 nM
LOX IMVI melanoma
  GI50: 475 nM
  TGI: 1360 nM
NCI-H226 lung
  GI50: 1490 nM
  TGI: 4170 nM
NCI/ADR-RES ovarian
  GI50: 295 nM
  TGI: 5350 nM
DU-145 prostate
  GI50: 412 nM
  TGI: 5280 nM
OVCAR-4 ovarian
  GI50: 1400 nM
  TGI: 19400 nM
UACC-62 melanoma
  GI50: 367 nM
  TGI: 1900 nM
OVCAR-8 ovarian
  GI50: 369 nM
  TGI: > 48300 nM
SF-539 CNS
  GI50: 717 nM
  TGI: 2900 nM
HCC-2998 colon
  GI50: 382 nM
  TGI: 1910 nM
TK-10 renal
  GI50: 387 nM
  TGI: 3290 nM
SF-268 CNS
  GI50: 1360 nM
  TGI: 4650 nM
A498 renal
  GI50: 417 nM
  TGI: 1730 nM
SK-MEL-2 melanoma
  GI50: 2050 nM
  TGI: 6610 nM
MDA-MB-435
  GI50: 330 nM
  TGI: 1280 nM
UO-31 renal
  GI50: 299 nM
  TGI: 1550 nM
SK-MEL-5 melanoma
  GI50: 373 nM
  TGI: 1340 nM
OVCAR-5 ovarian
  GI50: 330 nM
  TGI: 2670 nM
M14 melanoma
  GI50: 465 nM
  TGI: 2100 nM
SNB-75 CNS
  GI50: 474 nM
  TGI: 2920 nM
SF-295 CNS
  GI50: 634 nM
  TGI: 2030 nM
RXF 393 renal
  GI50: 249 nM
  TGI: 799 nM
ACHN renal
  GI50: 379 nM
  TGI: 1690 nM
SK-MEL-28 melanoma
  GI50: 485 nM
  TGI: 1920 nM
HL-60(TB) leukemia
  GI50: 331 nM
  TGI: 17300 nM
MDA-MB-231 breast
  GI50: 502 nM
  TGI: 4500 nM
PC-3 prostate
  GI50: 509 nM
  TGI: 6850 nM
NCI-H522 lung
  GI50: 407 nM
  TGI: 2580 nM
HCT-15 colon
  GI50: 512 nM
  TGI: 4600 nM
COLO 205 colon
  GI50: 374 nM
  TGI: 1920 nM
SW-620 colon
  GI50: 235 nM
  TGI: 856 nM
UACC-257 melanoma
  GI50: 419 nM
  TGI: 18200 nM
U251 CNS
  GI50: 502 nM
  TGI: 2420 nM
NCI-H23 lung
  GI50: 814 nM
  TGI: 2660 nM
K-562 leukemia
  GI50: 297 nM
  TGI: > 100000 nM
EKVX NSCLC
  GI50: 954 nM
  TGI: 6800 nM
MCF7 breast
  GI50: 421 nM
  TGI: 11800 nM
SK-OV-3 ovarian
  GI50: 645 nM
  TGI: 2990 nM
HOP-92 NSCLC
  GI50: 340 nM
  TGI: 1410 nM
SN12C renal
  GI50: 1050 nM
  TGI: 7340 nM
T-47D breast
  GI50: 338 nM
  TGI: > 31000 nM
HOP-62 NSCLC
  GI50: 601 nM
  TGI: 3240 nM
HS 578T breast
  GI50: 582 nM
  TGI: 6220 nM
A549 NSCLC
  GI50: 528 nM
  TGI: 2540 nM
NCI-H460 lung
  GI50: 430 nM
  TGI: 3210 nM
OVCAR-3 ovarian
  GI50: 478 nM
  TGI: 2490 nM
KM12 colon
  GI50: 1020 nM
  TGI: 6800 nM
IGROV1 ovarian
  GI50: 361 nM
  TGI: 1570 nM
MOLT-4 leukemia
  GI50: 330 nM
  TGI: 17100 nM
MALME-3M melanoma
  GI50: 242 nM
  TGI: 1590 nM
RPMI-8226 leukemia
  GI50: 316 nM
  TGI: 2820 nM
SNB-19 CNS
  GI50: 1030 nM
  TGI: 4060 nM
CAKI-1 renal
  GI50: 544 nM
  TGI: 2210 nM
CCRF-CEM leukemia
  GI50: 264 nM
  TGI: > 100000 nM
BT-549 breast
  GI50: 1370 nM
  TGI: 6090 nM
